Reference: patent US7906491B2 (Univisitair Medisch Centrum Utrecht, priority 2002, dated 2011)

Columns and labels:
Assay type in all cases: cell-based
Rap1 [1] = assay: Rap1 activation assay (read-out for Epac) in NIH3T3-A14-Epac1 cells; details: 15 min, 8-Br-cAMP 1 mM
Experimental: (§1) Upper panel: NIH3T3-A14-Epac1 cells were treated for 15 min with 8-Br-cAMP, and cell lysates were analyzed for activation of Rap1 and phosphorylation of CREB. Lower panel: NIH3T3-A14-Epac1 cells were treated in duplicate for 15 min with increasing concentrations of 8-pCPT-2′-O-Me-cAMP. Cells were lysed and equal amounts of cell lysate were incubated with precoupled GST-RalGDSRBD and Rap1 was assayed by immunoblotting with Rap1 antibody.
(§2) Therefore, 8-CPT-2′-O-Me-cAMP was tested in NIH3T3-A14-Epac1 cells for the activation of Epac, using Rap1 as a read-out, and of PKA, using phosphorylation of the common PKA substrate CREB 29 as a read-out.
NIH3T3-A14 cells, stably expressing Epac1, were grown in DMEM with 10% fetal calf serum and 2 μg/ml puromycin. NIH-OVCAR3 (Ovcar3) cells were maintained in RPMI with 10% fetal calf serum. Transient transfection of Ovcar3 cells was performed using the FuGENE 6 transfection reagent (Roche Diagnostics, Mannheim, Germany) according to the manufacturer's procedures, using 6 μg total DNA including a CMV-luciferase plasmid (0.2 μg).
Rap activation assays were performed as described previously (16-18). Briefly, cells were lysed in lysis buffer containing 10% glycerol, 1% Nonidet P-40, 50 mM Tris-Cl pH7.5, 200 mM NaCl, 2mM MgCl2, 1 μM leupeptin, 0.1 μM aprotinin, 5 mM NaF, 1 mM NaVO3. Lysates were clarified by centrifugation and incubated with GST-tagged RalGDS-RBD pre-coupled to glutathione beads to specifically pull down the GTP-bound forms of Rap1. Samples were incubated for 1 hr at 4° C. while tumbling. Beads were washed four times in lysis buffer, and the remaining fluid was removed with an insulin syringe. Proteins were eluted with Laemmli sample buffer and analyzed by sodium dodecyl sulphate (SDS)-polyacrylamide gel electrophoresis and Western blotting using Rap1 antibodies. As a control, Rap1 levels in whole cell lysates were determined.

CREB = CREB phosphorylation (read-out for PKA) in NIH3T3-A14-Epac1 cells; details: 15 min, 8-Br-cAMP 1 mM
Experimental: as §1, §2
Antibodies against phosphorylated CREB (directed against phosphorylated Serl33) were obtained from Cell Signalling (Beverly, Mass., USA), and antibodies against K-Rev/Rap1 and polyclonal anti-HA were obtained from Santa Cruz Biotechnology (Santa Cruz, Calif., USA). The following inhibitors and stimuli were used at concentrations indicated, unless stated otherwise: RGD peptide (100 μM) and H-89 (10 μM) was obtained from Biomol Research Laboratories Inc. (Plymouth Meeting, Pa., USA). 8-Br-cAMP (1 mM) was obtained from BIOLOG Life Science Institute (Bremen, Germany). TPA (12-O-tetradecanoylphorbol-13-acetate) was obtained from Sigma (Steinheim, Germany) and was used at a concentration of 100 ng/ml. […]

Ovcar3 cells = assay: Adhesion assay of Ovcar3 cells to fibronectin; details: H-89 10 μM, 8-pCPT-2′-O-Me-cAMP 100 μM, FIG. 7C
Experimental: A: 8-pCPT-2′-O-Me-cAMP stimulates cell adhesion. Upper panel: quantification of Ovcar3 cells adhering to fibronectin after treatment with increasing concentrations of 8-pCPT-2′-O-Me-cAMP. Lower panel: Ovcar3 cells were treated with increasing concentrations of 8-pCPT-2′-O-Me-cAMP for 15 min, cells were lysed and analyzed for activation of Rap1 (upper blot) and CREB (lower blot). Total Rap1 levels are shown (middle blot). B: 8-pCPT-2′-O-Me-cAMP increases the rate of cell adhesion. Upper panel: quantification of Ovcar3 cells adhering to fibronectin at various time points. Lower panel: cells were treated with 60 μM 8-pCPT-2′-O-Me-cAMP for the indicated times. Cell lysates were analyzed for activation of Rap1 (upper blot) and CREB (lower blot). Total levels of Rap1 in cell lysates are shown (middle blot). C: Ovcar3 cells were either pre-incubated at 37° C. for 30 min with the PKA inhibitor H-89 (10 μM) 30 min prior to seeding onto the wells (‘Short’) or H-89 was added 30 min prior to trypsinization and during the recovery period (‘Long’) and seeded onto wells in the absence or presence of 8-pCPT-2′-O-Me-cAMP (100 μM). Cells were allowed to adhere for 1 h. D, cAMP-induced adhesion to fibronectin is blocked by inhibitors of Rap1. Left panel: Ovcar3 cells were transiently transfected with either mock DNA, increasing concentrations of HA-Rap1GAP II (0.5, 1, 2 or 6 μg, respectively), HA-Rap1GAPI (6 μg) or HA-RBD of RalGDS (6 μg), respectively. Cells were treated with 8-Br-cAMP or 8-pCPT-2′-O-Me-cAMP and adhesion to fibronectin was determined. […]
In functional assays, 8-pCPT-2′-O-Me-cAMP appeared to induce integrin-mediated cell adhesion through Epac and Rap1. […] The cells were seeded onto fibronectin-coated plates in the presence or absence of 8-pCPT-2′-O-Me-cAMP and the amount of cells that adhered after a certain period of time was quantified. […]
24-well plates were coated overnight with 2 μg/ml fibronectin (Sigma, St. Louis, Mo., USA) in sodium bicarbonate buffer (Sigma, St. Louis, Mo., USA). […] Cells were centrifuged, counted and resuspended at 3×10^5 cells/ml in serum-free RPMI with 0.5% BSA. […]

Rap1 [2] = assay: Rap1 activation assay in Ovcar3 cells; details: H-89 10 μM, FIG. 7C
Experimental: A: 8-pCPT-2′-O-Me-cAMP stimulates cell adhesion. Upper panel: quantification of Ovcar3 cells adhering to fibronectin after treatment with increasing concentrations of 8-pCPT-2′-O-Me-cAMP. Lower panel: Ovcar3 cells were treated with increasing concentrations of 8-pCPT-2′-O-Me-cAMP for 15 min, cells were lysed and analyzed for activation of Rap1 (upper blot) and CREB (lower blot). Total Rap1 levels are shown (middle blot). B: 8-pCPT-2′-O-Me-cAMP increases the rate of cell adhesion. Upper panel: quantification of Ovcar3 cells adhering to fibronectin at various time points. Lower panel: cells were treated with 60 μM 8-pCPT-2′-O-Me-cAMP for the indicated times. Cell lysates were analyzed for activation of Rap1 (upper blot) and CREB (lower blot). Total levels of Rap1 in cell lysates are shown (middle blot). C: Ovcar3 cells were either pre-incubated at 37° C. for 30 min with the PKA inhibitor H-89 (10 μM) 30 min prior to seeding onto the wells (‘Short’) or H-89 was added 30 min prior to trypsinization and during the recovery period (‘Long’) and seeded onto wells in the absence or presence of 8-pCPT-2′-O-Me-cAMP (100 μM). Cells were allowed to adhere for 1 h. D, cAMP-induced adhesion to fibronectin is blocked by inhibitors of Rap1. Left panel: Ovcar3 cells were transiently transfected with either mock DNA, increasing concentrations of HA-Rap1GAP II (0.5, 1, 2 or 6 μg, respectively), HA-Rap1GAPI (6 μg) or HA-RBD of RalGDS (6 μg), respectively. Cells were treated with 8-Br-cAMP or 8-pCPT-2′-O-Me-cAMP and adhesion to fibronectin was determined. Right upper panel: luciferase counts of total input cells per well in the above experiment are shown. Right lower panel: expression of HA-Rap1GAPs in the above experiment is shown.
Rap activation assays were performed as described previously (16-18). […] Proteins were eluted with Laemmli sample buffer and analyzed by sodium dodecyl sulphate (SDS)-polyacrylamide gel electrophoresis and Western blotting using Rap1 antibodies. As a control, Rap1 levels in whole cell lysates were determined.

| Structure (SMILES) | activation of Rap1 (Rap1 [1]) | phosphorylation of CREB (CREB) | effect on 8-pCPT-2′-O-Me-cAMP induction of adhesion (Ovcar3 cells) | effect on 8-pCPT-2′-O-Me-cAMP activation of Rap1 (Rap1 [2]) |
| --- | --- | --- | --- | --- |
| Nc1ncnc2c1nc(Br)n2[C@@H]1O[C@@H]2COP(=O)(O)O[C@H]2[C@H]1O [Compound 8-Br-cAMP, 8-Br-cAMP, reference compound] | induced both the activation of Rap1 | induced both the activation of Rap1 and the phosphorylation of CREB |  |  |
| O=S(=O)(NCCNC/C=C/c1ccc(Br)cc1)c1cccc2cnccc12 [Compound H-89, H-89, reference compound] |  |  | insensitive | insensitive |
